Results from PubChem BioAssay AID1963971 (Molecular Pharmacology Branch, DTP, NCI, 2024).

Test system: 953936-095-R-J2-PDC spheroids with HUVEC/MSC, viability
Assay: Anticancer human tumor 953936-095-R-J2-PDC patient-derived cervical squamous cell carcinoma cell line growth inhibition [PI3K]
Settings: for IC50: curve of first compound; for viability, T/C: stronger effect = lower value
How it was run: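 Combination activity was assessed by viability in multicellular tumor spheroids carrying HUVEC and MSC components. Agents were tested with PI3K inhibitors from a Cmax-based top dose (or 10 microM) downward in half-log increments.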

[1] = second compound 0.00316 µM, first compound 0.0316 µM
[2] = second compound 0.00316 µM, first compound 0.1 µM
[3] = second compound 0.00316 µM, first compound 0.316 µM
[4] = second compound 0.00316 µM, first compound 1 µM
[5] = second compound 0.01 µM, first compound 0.0316 µM
[6] = second compound 0.01 µM, first compound 0.1 µM
[7] = second compound 0.01 µM, first compound 0.316 µM
[8] = second compound 0.01 µM, first compound 1 µM
[9] = second compound 0.0316 µM, first compound 0.0316 µM
[10] = second compound 0.0316 µM, first compound 0.1 µM
[11] = second compound 0.0316 µM, first compound 0.316 µM
[12] = second compound 0.0316 µM, first compound 1 µM
[13] = second compound 0.1 µM, first compound 0.0316 µM
[14] = second compound 0.1 µM, first compound 0.1 µM
[15] = second compound 0.1 µM, first compound 0.316 µM
[16] = second compound 0.1 µM, first compound 1 µM
[17] = second compound 0.316 µM, first compound 0.0316 µM
[18] = second compound 0.316 µM, first compound 0.1 µM
[19] = second compound 0.316 µM, first compound 0.316 µM
[20] = second compound 0.316 µM, first compound 1 µM
[21] = second compound 1 µM, first compound 0.0316 µM
[22] = second compound 1 µM, first compound 0.1 µM
[23] = second compound 1 µM, first compound 0.316 µM
[24] = second compound 1 µM, first compound 1 µM
[25] = second compound 0.00316 µM, first compound 0.00316 µM
[26] = second compound 0.00316 µM, first compound 0.01 µM
[27] = second compound 0.01 µM, first compound 0.00316 µM
[28] = second compound 0.01 µM, first compound 0.01 µM
[29] = second compound 0.0316 µM, first compound 0.00316 µM
[30] = second compound 0.0316 µM, first compound 0.01 µM
[31] = second compound 0.1 µM, first compound 0.00316 µM
[32] = second compound 0.1 µM, first compound 0.01 µM
[33] = second compound 0.316 µM, first compound 0.00316 µM
[34] = second compound 0.316 µM, first compound 0.01 µM
[35] = second compound 1 µM, first compound 0.00316 µM
[36] = second compound 1 µM, first compound 0.01 µM
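Also: spheroids exposed to compounds for seven days before read-out.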

CC(C)NCC(C(=O)N1CCN(c2ncnc3c2C(C)CC3O)CC1)c1ccc(Cl)cc1 (stereo unspecified) + CC(Nc1ccc2c(c1)OCCn1cc(N3C(=O)OCC3C(F)F)nc1-2)C(N)=O
IC50 (second compound 0.00316 µM): 890 nM | IC50 (second compound 0.01 µM): 865 nM | IC50 (second compound 0.0316 µM): 640 nM | IC50 (second compound 0.1 µM): 176 nM | IC50 (second compound 0.316 µM): < 31.6 nM | IC50 (second compound 1 µM): < 31.6 nM | viability, T/C [1]: 89.5% | viability, T/C [2]: 88.2% | viability, T/C [3]: 73.9% | viability, T/C [4]: 48% | viability, T/C (second compound 0.00316 µM, first compound 3.16 µM): 22.5% | viability, T/C (second compound 0.00316 µM, first compound 10 µM): 15.1% | viability, T/C [5]: 87% | viability, T/C [6]: 86.1% | viability, T/C [7]: 71.3% | viability, T/C [8]: 48.3% | viability, T/C (second compound 0.01 µM, first compound 3.16 µM): 20.9% | viability, T/C (second compound 0.01 µM, first compound 10 µM): 14.1% | viability, T/C [9]: 79.1% | viability, T/C [10]: 76% | viability, T/C [11]: 63.5% | viability, T/C [12]: 42% | viability, T/C (second compound 0.0316 µM, first compound 3.16 µM): 18.4% | viability, T/C (second compound 0.0316 µM, first compound 10 µM): 11.4% | viability, T/C [13]: 57.2% | viability, T/C [14]: 55% | viability, T/C [15]: 45.5% | viability, T/C [16]: 31.2% | viability, T/C (second compound 0.1 µM, first compound 3.16 µM): 18.6% | viability, T/C (second compound 0.1 µM, first compound 10 µM): 9.8% | viability, T/C [17]: 35.8% | viability, T/C [18]: 33.9% | viability, T/C [19]: 30.6% | viability, T/C [20]: 23.6% | viability, T/C (second compound 0.316 µM, first compound 3.16 µM): 13% | viability, T/C (second compound 0.316 µM, first compound 10 µM): 9.25% | viability, T/C [21]: 23% | viability, T/C [22]: 22.3% | viability, T/C [23]: 19.3% | viability, T/C [24]: 15.4% | viability, T/C (second compound 1 µM, first compound 3.16 µM): 14% | viability, T/C (second compound 1 µM, first compound 10 µM): 7.62%

CCN1CCN(Cc2ccc(Nc3ncc(F)c(-c4cc(F)c5nc(C)n(C(C)C)c5c4)n3)nc2)CC1 + CC(Nc1ccc2c(c1)OCCn1cc(N3C(=O)OCC3C(F)F)nc1-2)C(N)=O
IC50 (second compound 0.00316 µM): > 1000 nM | IC50 (second compound 0.01 µM): > 1000 nM | IC50 (second compound 0.0316 µM): > 1000 nM | IC50 (second compound 0.1 µM): 64.4 nM | IC50 (second compound 0.316 µM): < 3.16 nM | IC50 (second compound 1 µM): < 3.16 nM | viability, T/C [25]: 102% | viability, T/C [26]: 98.5% | viability, T/C [1]: 94.6% | viability, T/C [2]: 96.6% | viability, T/C [3]: 89.8% | viability, T/C [4]: 80.7% | viability, T/C [27]: 93% | viability, T/C [28]: 104% | viability, T/C [5]: 94.2% | viability, T/C [6]: 83.3% | viability, T/C [7]: 80% | viability, T/C [8]: 79.3% | viability, T/C [29]: 73% | viability, T/C [30]: 79.7% | viability, T/C [9]: 72.5% | viability, T/C [10]: 75.8% | viability, T/C [11]: 63.8% | viability, T/C [12]: 72.2% | viability, T/C [31]: 58.4% | viability, T/C [32]: 53.8% | viability, T/C [13]: 53.5% | viability, T/C [14]: 47.9% | viability, T/C [15]: 45.8% | viability, T/C [16]: 48.5% | viability, T/C [33]: 34.8% | viability, T/C [34]: 36% | viability, T/C [17]: 31.1% | viability, T/C [18]: 32.3% | viability, T/C [19]: 27.6% | viability, T/C [20]: 29.4% | viability, T/C [35]: 22% | viability, T/C [36]: 21.5% | viability, T/C [21]: 22.7% | viability, T/C [22]: 18.8% | viability, T/C [23]: 18.4% | viability, T/C [24]: 24.7%

Cn1ncnc1[C@H]1c2n[nH]c(=O)c3cc(F)cc(c23)N[C@@H]1c1ccc(F)cc1 + CC(Nc1ccc2c(c1)OCCn1cc(N3C(=O)OCC3C(F)F)nc1-2)C(N)=O
IC50 (second compound 0.00316 µM): > 100 nM | IC50 (second compound 0.01 µM): > 100 nM | IC50 (second compound 0.0316 µM): > 100 nM | IC50 (second compound 0.1 µM): > 100 nM | IC50 (second compound 0.316 µM): < 0.316 nM | IC50 (second compound 1 µM): < 0.316 nM | viability, T/C (second compound 0.00316 µM, first compound 0.000316 µM): 99.8% | viability, T/C (second compound 0.00316 µM, first compound 0.001 µM): 104% | viability, T/C [25]: 105% | viability, T/C [26]: 100% | viability, T/C [1]: 98.9% | viability, T/C [2]: 91.7% | viability, T/C (second compound 0.01 µM, first compound 0.000316 µM): 103% | viability, T/C (second compound 0.01 µM, first compound 0.001 µM): 106% | viability, T/C [27]: 88.1% | viability, T/C [28]: 94.2% | viability, T/C [5]: 95% | viability, T/C [6]: 86.2% | viability, T/C (second compound 0.0316 µM, first compound 0.000316 µM): 80% | viability, T/C (second compound 0.0316 µM, first compound 0.001 µM): 79% | viability, T/C [29]: 77.5% | viability, T/C [30]: 79.9% | viability, T/C [9]: 80.2% | viability, T/C [10]: 74.2% | viability, T/C (second compound 0.1 µM, first compound 0.000316 µM): 58.8% | viability, T/C (second compound 0.1 µM, first compound 0.001 µM): 56% | viability, T/C [31]: 60.4% | viability, T/C [32]: 57.9% | viability, T/C [13]: 54.8% | viability, T/C [14]: 50.8% | viability, T/C (second compound 0.316 µM, first compound 0.000316 µM): 34.3% | viability, T/C (second compound 0.316 µM, first compound 0.001 µM): 35.9% | viability, T/C [33]: 35.3% | viability, T/C [34]: 33.9% | viability, T/C [17]: 34% | viability, T/C [18]: 33% | viability, T/C (second compound 1 µM, first compound 0.000316 µM): 23.3% | viability, T/C (second compound 1 µM, first compound 0.001 µM): 23.3% | viability, T/C [35]: 22.2% | viability, T/C [36]: 23.7% | viability, T/C [21]: 23% | viability, T/C [22]: 24.4%
